Entries after “also recorded” stand apart in the source; their conditions may differ. Like-named read-outs stand apart in the source and are kept apart here.
Columns and labels:
Tacaribe virus [1] = assay: microbe, parasite or virus in culture; format: cell-based
Tacaribe virus [2] = format: cell-based; conditions: read-out: Tacaribe (Plaque reduction) EC50
Machupo = format: cell-based, Machupo virus; conditions: read-out: Machupo (Plaque reduction) EC50
Guanarito = format: cell-based, Guanarito virus; conditions: read-out: Guanarito (Plaque reduction) EC50
Junín = format: cell-based, Junin virus; conditions: read-out: Junin (Plaque reduction) EC50
Tacaribe virus [3] = test system: Tacaribe virus; set-up: species or system BALB/c mice; conditions: mouse, in vivo
icd-GPC = format: binding, Junin virus
[4] = test system: drug resistant Tacaribe mutants; format: cell-based, Tacaribe virus
[5] = test system: S. typhimurium tester strains TA7007 and TA7006 and TA98
[6] = in vivo
[7] = in vivo; remark: listed apart in the source
[8] = mouse, in vivo, ip, 100 mg/kg/day

N-2-(1,1,1,3,3,3-hexafluoro-1-methylpropyl)-2-[(4-difluoromethoxyphenyl)sulfonyl]hydrazine-1-carboxamide [ST-294]
Tacaribe virus CPE EC50 (Tacaribe virus [1]): 66 ng/mL | EC50 (Tacaribe virus [1]; read-out: Tacaribe (CPE) EC50): 120 nM | EC50 (Tacaribe virus [2]): 100 nM | EC50 (Machupo): 300 nM | EC50 (Guanarito): 1000 nM | EC50 (Junín): 300 nM | efficacy (survival) in Tacaribe infected newborn mice (Tacaribe virus [3]): both survival and a delay in death similar to the drug control; also recorded: significant protection against Tacaribe virus induced disease | displacement of bound ST-375 from icd-GPC (icd-GPC): displaced from icd-GPC in a time- and concentration-dependent manner | susceptibility of ST-336 drug resistant Tacaribe variants [4]: all of the mutants elicited cross-resistance | CC50 (Vero cells): > 50 µM | Genotoxicity (Ames test) [5]: negative | PK (rat/oral) ½ life [6]: 2 h | Cmax (serum levels) ([6]; rat, po): 6670 ng/mL | PK (newborn mouse/IP) Cmax [7]: 2910 ng/mL | PK (newborn mouse/IP) ½ life [7]: 3 h | tolerability [8]: well tolerated
